Data published in patent publication US20120264949A1, “Method of Labeling Dopamine D2 Receptor Using Radiosynthesized Ligand of Iodine-123-Epidepride” (ATOMIC ENERGY COUNCIL-INSTITUTE OF NUCLEAR ENERGY RESEARCH, priority 2011, published 2012).
pKd: −log10 of the molar value.

Tests used:
[1] = Lipophilicity, octanol/PBS partition with gamma-counter; assay type: physicochemical
Experimental: For analyzing lipophilicity of the I-123-Epidepride, a solution of phosphate buffer saline (PBS) is used with lipophilic octanol. After 50 μl of I-123-Epidepride, 0.5 ml of PBS and 0.5 ml of octanol are mixed, a diluted octanol solution is obtained with an aqueous solution which has an equal weight as the octanol solution and then is processed with a gamma-counter. Therein, the lipophilicity of the I-123-Epidepride is expressed as a value of log P and log P is obtained by the following formula: Log P=Log {(Decay corrected activity)organic layer×10/(Decay corrected activity)aqueous layer}.
FIG. 6 and FIG. 7 are views showing lipophilicity and labeling results. […] Besides, the labeling method according to the present disclosure obtains 20 mCi each time for three times with an average radiochemistry purity of 99.55±0.8% and an average yield of 74.83±2.4% (shown in FIG. 7).

[2] = Stability after standing 24 hours, radiochemistry purity measured; assay type: physicochemical; settings: stayed still for 24 hours
Experimental: FIG. 8A and FIG. 8B are views showing stability at 0 hour and 24 hour. As shown in the figures, after the I-123-Epidepride is stayed still for 24 hours, its radiochemistry purity is measured. As shown by the liquid peaks, [32], the stability is higher than 90%.

dopamine D2 receptors [3] = biological target: T1, dopamine D2 receptors (Mus musculus, UniProt P61168); assay: microSPECT/microCT imaging of mouse brain; assay type: in vivo; settings: 5 mCi injected, striatum, thalamus and midbrain
T1 construct: from tissue; host or cells: mouse brain in vivo (striatum, thalamus, midbrain)
T1 sequence (P61168 whole entry): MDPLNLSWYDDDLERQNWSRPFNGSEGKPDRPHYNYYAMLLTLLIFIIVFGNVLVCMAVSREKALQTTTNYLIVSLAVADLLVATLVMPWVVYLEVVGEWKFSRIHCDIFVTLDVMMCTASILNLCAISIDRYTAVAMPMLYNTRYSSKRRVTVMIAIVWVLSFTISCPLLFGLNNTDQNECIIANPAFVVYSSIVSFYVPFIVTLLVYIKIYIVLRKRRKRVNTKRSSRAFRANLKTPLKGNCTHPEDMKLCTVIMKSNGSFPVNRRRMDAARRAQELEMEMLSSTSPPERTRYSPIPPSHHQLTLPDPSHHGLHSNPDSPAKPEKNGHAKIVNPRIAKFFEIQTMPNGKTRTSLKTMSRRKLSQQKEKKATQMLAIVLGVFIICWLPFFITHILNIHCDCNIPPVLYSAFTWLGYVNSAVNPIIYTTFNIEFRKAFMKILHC
Experimental: FIG. 9 is a view showing a combined image of a mouse brain obtained through microSPECT and microCT. As shown in the figure, a combined image of a mouse brain is obtained through microSPECT and microCT, where 5 mCi of I-123-Epidepride is injected into the mouse brain.

dopamine D2 receptors [4] = biological target: dopamine D2 receptors (Homo sapiens, UniProt P14416); settings: imaging agent for dopamine D2 receptors; cited from earlier work
Sequence of dopamine D2 receptors (Homo sapiens, UniProt P14416) (P14416 whole entry): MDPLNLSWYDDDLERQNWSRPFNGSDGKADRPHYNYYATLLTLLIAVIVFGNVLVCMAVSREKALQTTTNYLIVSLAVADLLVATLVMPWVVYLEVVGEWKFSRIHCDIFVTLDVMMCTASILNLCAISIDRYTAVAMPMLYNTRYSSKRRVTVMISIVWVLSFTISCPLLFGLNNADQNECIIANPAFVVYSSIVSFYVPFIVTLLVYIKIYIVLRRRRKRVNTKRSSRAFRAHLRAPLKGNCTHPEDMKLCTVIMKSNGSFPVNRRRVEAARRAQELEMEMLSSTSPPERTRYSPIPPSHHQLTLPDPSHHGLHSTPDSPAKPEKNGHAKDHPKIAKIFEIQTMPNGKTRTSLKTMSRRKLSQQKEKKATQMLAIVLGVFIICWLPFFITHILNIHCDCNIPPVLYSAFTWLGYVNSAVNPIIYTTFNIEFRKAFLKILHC

Row | SMILES | log P value [1] | stability (radiochemistry purity after 24 hours) [2] | brain uptake in combined microSPECT/microCT image (dopamine D2 receptors [3]) | pKd (dopamine D2 receptors [4])
1 | CCN1CCC[C@H]1CNC(=O)c1cc(I)cc(OC)c1OC [I-123-Epidepride] | 1.76±0.04 | higher than 90% | obvious absorption is found in striatum [41], thalamus and midbrain [42] | 
2 | CCN1CCC[C@H]1CNC(=O)c1c(OC)ccc(I)c1O [IBZM] |  |  |  | 9.37
